Data on 18 compounds can be found in patent US20150344466A1 (SUMITOMO CHEMICAL COMPANY, LIMITED, priority 2013, published 2015).

Common to all, as to assay type: in vivo
One experiment deals with Aphis gossypii. Kind of experiment: Soil treatment test on Aphis gossypii on cucumber (Test Example 9). The following applies: 168 h, 5 ml treatment solution in contact with soil, seven days after putting insects, read-out: controlling value. Here is the method: On the other hand, cucumber was planted in a polyethylene cup with a plurality of small holes on the bottom and grown until the first true leaf was spread. A cup in which cucumber was planted was put in a plastic cup with 5 ml of the test treatment solution, so that the soil in the cup was in contact with the treatment liquid. After five days, about 20Aphis gossypii were allowed to parasitize the cucumber, and seven days after putting insects, the number of Aphis gossypii was investigated, and the controlling value was calculated according to the following equation. Controlling value (%)={1−(Cb×Tai)/([…])}×100 In the equation, the symbols represent as follows. Cb: the number of insects in a non-treated section before treatment Cai: the number of insects in a non-treated section on observation Tb: the number of insects in a treated section before treatment Tai: the number of insects in a treated section on observation

In experiment [1] the test system is Musca domestica. Kind of experiment: Filter paper/sucrose bait death rate test on Musca domestica (Test Example 5). The note with it: female imagoes of Musca domestica, 0.7 ml on filter paper, after 24 hours. The procedure, abridged:
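Filter paper in a 5.5 cm cup dosed with 0.7 ml test drug solution, with 30 mg sucrose as bait. Ten female adult houseflies released and cup sealed. Dead insects counted after 24 h; death rate (%) = dead/tested × 100.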

Experiment [2] concerns Culex pipiens pallens. The experiment in a line: Knockdown spray test on adult Culex pipiens pallens (Test Example 4). The following applies: topical, 0.25 h, active ingredient 0.1% w/v, 0.5 ml sprayed, within 15 minutes, read-out: knockdown rate of the test insects within 15 minutes. In outline: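 Ten adult mosquitoes in a gauze-covered cup inside a 46×46×70 cm chamber were sprayed with 0.5 ml of test solution from 30 cm at 0.4 kg/cm^2. The cup was removed at once, and knocked-down insects were counted at 2, 5 and 15 min; knockdown rate (%) = knocked-down/tested ×100.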

The test system of experiment [3] is Blattella germanica. The experiment in a line: Knockdown spray test on Blattella germanica, 0.1% w/v oil formulation (Test Example 2). The following applies: topical, 0.25 h, active ingredient 0.1% w/v, 1.5 ml sprayed, within 15 minutes, read-out: knockdown rate of the test insects within 15 minutes. The procedure, abridged: (§1)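 Ten German cockroaches (5 males, 5 females) in a mesh-bottomed, butter-walled container were sprayed with 1.5 ml test solution from 60 cm at 0.42 kg/cm^2 inside a chamber.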

Experiment [4] has as its system Culex pipiens pallens. The experiment in a line: Larvicidal test on Culex pipiens pallens, eight days (Test Example 7). The following applies: 192 h; last-instar larvae of Culex pipiens pallens; 3.5 ppm in water; eight days later; read-out: death rate. In outline:
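Twenty last-instar larvae placed in 100 ml ion-exchanged water containing test drug at 3.5 ppm active ingredient. Mortality scored after eight days; death rate = dead/tested × 100.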

Another experiment relates to Plutella xylostella. The experiment in a line: Foliar spray test on Plutella xylostella on cabbage (Test Example 10). The following applies: 120 h, third instar larvae of Plutella xylostella on cabbage, 500 ppm spray 20 ml/cup, after five days, read-out: controlling value. In outline: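 Cabbage at the third–fourth true-leaf stage sprayed with test solution at 20 ml/cup, dried, then infested with 10 third-instar larvae. Insects counted after five days; controlling value (%) calculated from treated and non-treated counts before treatment and at observation.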

A further experiment relates to Spodoptera litura. Kind of experiment: Foliar spray test on Spodoptera litura on cabbage (Test Example 11). The note with it: 96 h, fourth instar larvae of Spodoptera litura on cabbage, 500 ppm spray 20 ml/cup, after 4 days, read-out: controlling value. As for the experimental part: On the other hand, cabbage was planted in a polyethylene cup, and grown until the third-fourth true leaf was spread. The test spray solution was sprayed to the cabbage at a ratio of 20 ml/cup. After the drug solution sprayed orn the cabbage was dried, 10 fourth instar larvae of Spodoptera litura were allowed to parasitize the cabbage. After 4 days, the number of surviving Spodoptera litura on the cabbage leaves was examined, and the controlling value was calculated according to the following equation. Controlling value (%)={1−(Cb×Tai)/([…])}×100 In the equation, the symbols represent as follows. Cb: the number of insects in a non-treated section before treatment Cai: the number of insects in a non-treated section on observation Tb: the number of insects in a treated section before treatment Tai: the number of insects in a treated section on observation

In experiment [5] the test system is Culex pipiens pallens. The experiment in a line: Larvicidal test on Culex pipiens pallens, one day (Test Example 6). The following applies: 24 h; last-instar larvae of Culex pipiens pallens; 3.5 ppm in water; one day later; read-out: death rate. As for the experimental part:
Each of the formulations of Compounds of Present Invention (39), (63), (71), (72), (92), (93), (95), (106), (150), (171), (170), (181), (182), (183), (187), (188), (189), (190), (191), (192), (200), (201), (201), (234), (246), (290) and (299) obtained in Formulation Example 15 was diluted with water, so as to have a concentration of the active ingredient of 500 ppm, to prepare a test drug solution.
20 last-instar larvae of Culex pipiens pallens were released into a liquid to which 0.7 ml of the above test drug solution was added to 100 ml of ion-exchanged water (a concentration of the active ingredient of 3.5 ppm). One day later, the life and death of the Culex pipiens pallens was examined, and the death rate was calculated. The death rate was calculated by the following equation.
Death rate (%)=(Number of dead insects/Number of tested insects)×100

Experiment [6] deals with Musca domestica. The experiment in a line: Knockdown spray test on adult Musca domestica (Test Example 3). The following applies: topical, 0.25 h, active ingredient 2.0% w/v, 0.5 ml sprayed, within 15 minutes, read-out: knockdown rate of the test insects within 15 minutes. The procedure, abridged: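 Ten adult house flies (5 male, 5 female) in a gauze-covered cup sprayed with 0.5 ml test solution from 30 cm at 0.9 kg/cm^2 inside a chamber, then removed. Knocked-down flies counted at 2, 5 and 15 min and expressed as % of insects tested.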

Experiment [7] concerns Blattella germanica. The experiment in a line: Knockdown spray test on Blattella germanica, 2.0% w/v oil formulation (Test Example 1). The following applies: topical, 0.25 h, active ingredient 2.0% w/v, 1.5 ml sprayed, within 15 minutes, read-out: knockdown rate of the test insects within 15 minutes. In outline: as §1

With `CCCc1cc(C(=O)NCC2CCOC2)n(C)n1` (stereo not shown) [(3), N-(tetrahydrofuran-3-ylmethyl)-1-methyl-3-propyl-1H-pyrazole-5-carboxamide], the pest or weed control at 500 ppm in the experiment with Aphis gossypii was ≥ 90%.

For the compound `O=C(NCC1CCOC1)c1cn(Cc2ccccc2)nn1` (stereo not shown) [(9)], the pest or weed control at 500 ppm in the experiment with Musca domestica [1] and in the experiment with Aphis gossypii was ≥ 90% throughout.

As to `O=C(NCCC1CCOCC1)c1cc(COCc2ccccc2)on1` [(18), N-[2-(tetrahydropyran-4-yl)ethyl]-5-benzyloxymethylisoxazole-3-carboxamide], the pest or weed control at 0.1 % strength in the experiment on Culex pipiens pallens [2] is ≥ 80%. Further, in the experiment on Aphis gossypii, the pest or weed control at 500 ppm was ≥ 90%.

Turning to `CCCCn1cc(C(=O)NCC2CCOC2)cn1` (stereo not shown) [(51), N-(tetrahydrofuran-3-ylmethyl)-1-butyl-1H-pyrazole-4-carboxamide], the pest or weed control at 500 ppm in the experiment with Aphis gossypii was ≥ 90%.

As to `Cn1nc(COCc2ccccc2)cc1C(=O)NCC1CCOC1` (stereo not shown) [(52), N-(tetrahydrofuran-3-ylmethyl)-3-benzyloxymethyl-1-methyl-1H-pyrazole-5-carboxamide], the pest or weed control at 500 ppm with Aphis gossypii is ≥ 90%.

Take `CCCCn1cc(C(=O)NCC2CCOC2)nn1` (stereo not shown) [(54), N-(tetrahydrofuran-3-ylmethyl)-1-butyl-1H-1,2,3-triazole-4-carboxamide]: the pest or weed control at 500 ppm with Musca domestica [1] and with Aphis gossypii was ≥ 90% in each case.

On to `CCCCc1nc(C(=O)NCC2CCOC2)no1` (stereo not shown) [(57), N-(tetrahydrofuran-3-ylmethyl)-5-butyl-1,2,4-oxadiazole-3-carboxamide], for which the pest or weed control at 500 ppm in the experiment with Aphis gossypii is ≥ 90%.

In the case of `CCCCc1noc(C(=O)NCC2CCOC2)n1` (stereo not shown) [(58), N-(tetrahydrofuran-3-ylmethyl)-3-butyl-1,2,4-oxadiazole-5-carboxamide], the pest or weed control at 500 ppm with Aphis gossypii was ≥ 90%.

For the compound `O=C(NCC1CCOCC1)c1cc(COCc2ccc(F)cc2)on1` [(90), N-(tetrahydropyran-4-ylmethyl)-5-(4-fluorobenzyloxymethyl)isoxazole-3-carboxamide], the pest or weed control at 0.1 % strength with Culex pipiens pallens [2] and in the experiment with Blattella germanica [3] was ≥ 80% in each case. For the same compound, the pest or weed control at 500 ppm in the experiment with Musca domestica [1] and in the experiment on Aphis gossypii was ≥ 90% each time.

In the case of `O=C(NCC1CCOC1)c1cc(CCCCCO)on1` (stereo not shown) [(142), N-(tetrahydrofuran-3-ylmethyl)-5-(5-hydroxypentyl)isoxazole-3-carboxamide], the pest or weed control at 500 ppm in the experiment on Aphis gossypii was ≥ 90%.

With `O=C(NCC1CCOC1)c1cc(COc2ccc(OC(F)(F)F)cc2)on1` (stereo not shown) [(190), N-(tetrahydrofuran-3-ylmethyl)-5-(4-trifluoromethoxyphenoxymethyl)isoxazole-3-carboxamide], the pest or weed control at 0.1 % strength in the experiment with Culex pipiens pallens [2] and in the experiment on Blattella germanica [3] was ≥ 80% in each case. Also, the pest or weed control at 3.5 ppm with Culex pipiens pallens [4] and in the experiment on Culex pipiens pallens [5] was ≥ 90% each time. For the same compound, the pest or weed control at 500 ppm in the experiment on Plutella xylostella was ≥ 90%; with Spodoptera litura, ≥ 80%.

For the compound `O=C(NCC1CCOCC1)c1cc(COc2ccc(OC(F)(F)F)cc2)on1` [(191), N-(tetrahydropyran-4-ylmethyl)-5-(4-trifluoromethoxyphenoxymethyl)isoxazole-3-carboxamide], the pest or weed control at 0.1 % strength in the experiment with Culex pipiens pallens [2] was ≥ 80%. Also, the pest or weed control at 3.5 ppm with Culex pipiens pallens [4] and with Culex pipiens pallens [5] was ≥ 90% each time. The pest or weed control at 500 ppm is ≥ 90% in the experiment on Plutella xylostella and ≥ 80% in the experiment with Spodoptera litura.

As to `O=C(NCC1CCOC1)c1cc(COc2cccc(F)c2)on1` (stereo not shown) [(194), N-(tetrahydrofuran-3-ylmethyl)-5-(3-fluorophenoxymethyl)isoxazole-3-carboxamide], the pest or weed control at 0.1 % strength with Culex pipiens pallens [2] and in the experiment on Blattella germanica [3] was ≥ 80% throughout. Moreover, the pest or weed control at 500 ppm in the experiment on Aphis gossypii was ≥ 90%.

For `O=C(NCC1CCOC1)c1cc(COc2cccc(OC(F)(F)F)c2)on1` (stereo not shown) [(200), N-(tetrahydrofuran-3-ylmethyl)-5-(3-trifluoromethoxyphenoxymethyl)isoxazole-3-carboxamide], the pest or weed control at 0.1 % strength in the experiment with Culex pipiens pallens [2] and in the experiment with Blattella germanica [3] was ≥ 80% throughout. For the same compound, the pest or weed control at 500 ppm is ≥ 90% in the experiment with Musca domestica [1] and ≥ 80% in the experiment on Spodoptera litura. The pest or weed control at 3.5 ppm in the experiment with Culex pipiens pallens [4] and in the experiment on Culex pipiens pallens [5] was ≥ 90% each time.

With `O=C(NCC1CCOCC1)c1cc(COc2cccc(OC(F)(F)F)c2)on1` [(201), N-(tetrahydropyran-4-ylmethyl)-5-(3-trifluoromethoxyphenoxymethyl)isoxazole-3-carboxamide], the pest or weed control at 0.1 % strength with Culex pipiens pallens [2] is ≥ 80%. The pest or weed control at 3.5 ppm in the experiment with Culex pipiens pallens [4] and in the experiment on Culex pipiens pallens [5] was ≥ 90% in each case. Also, the pest or weed control at 500 ppm with Plutella xylostella is ≥ 90%; in the experiment with Spodoptera litura it was ≥ 80%.

On to `O=C(NCC1CCOC1)c1cc(COc2ccc3c(c2)OCO3)on1` (stereo not shown) [(204), N-(tetrahydrofuran-3-ylmethyl)-5-(5-(1,3-benzodioxolanyl)oxymethyl)isoxazole-3-carboxamide], for which the pest or weed control at 0.1 % strength in the experiment with Culex pipiens pallens [2] and in the experiment with Blattella germanica [3] was ≥ 80% in each case. Also, the pest or weed control at 500 ppm in the experiment with Aphis gossypii is ≥ 90%.

As for `O=C(NCC1CCOC1)c1cc(CCCc2ccc(Cl)c(Cl)c2)on1` (stereo not shown) [(246), N-(tetrahydrofuran-3-ylmethyl)-5-[3-(3,4-dichlorophenyl)propyl]isoxazole-3-carboxamide], the pest or weed control at 0.1 % strength in the experiment with Culex pipiens pallens [2] and in the experiment on Blattella germanica [3] was ≥ 80% each time. The pest or weed control at 500 ppm with Musca domestica [1] was ≥ 90%; with Plutella xylostella, ≥ 90%; with Spodoptera litura, ≥ 80%. Besides, the pest or weed control at 3.5 ppm in the experiment with Culex pipiens pallens [5] is ≥ 90%.

With `Cc1c(C(=O)NCC2CCOC2)noc1CCCc1ccc2ccccc2c1` (stereo not shown) [(290), N-(tetrahydrofuran-3-ylmethyl)-4-methyl-5-[3-(2-naphthyl)propyl]isoxazole-3-carboxamide], the pest or weed control at 0.1 % strength with Culex pipiens pallens [2] and in the experiment with Blattella germanica [3] was ≥ 80% throughout. The pest or weed control at 500 ppm is ≥ 90% with Musca domestica [1], ≥ 90% with Plutella xylostella and ≥ 80% in the experiment on Spodoptera litura. The pest or weed control at 2 % strength in the experiment on Musca domestica [6] and with Blattella germanica [7] was ≥ 80% throughout. The pest or weed control at 3.5 ppm in the experiment with Culex pipiens pallens [5] is ≥ 90%.
